Measurements as given in ChEMBL document CHEMBL1139607, “Synthetic lanostane-type triterpenoids as inhibitors of DNA topoisomerase II” (Bioorg Med Chem Lett, 2005).

What was measured:
DNA topoisomerase II = DNA topoisomerase II (Homo sapiens, UniProt P11388+Q02880); assay: Inhibitory concentration against human DNA topoisomerase II; type: protein assay
A549 = assay: Effective dose on human lung carcinoma (A549) cells; type: functional; conditions: read-out: ED50 (the source's name)

| SMILES | IC50 (DNA topoisomerase II) [µM] | EC50 (A549) [µM] |
| --- | --- | --- |
| C[C@H](CC[C@@H](O)C(C)(C)O)[C@H]1CC[C@]2(C)C3CCC4C(C)(C)C(=O)C(C(=O)O)=C[C@]4(C)C3=CC[C@]12C (some centres not stated) | 23.8 | 7.33 |
| C[C@H](CC[C@@H](O)C(C)(C)O)[C@H]1CC[C@]2(C)C3CCC4C(C)(C)C(=O)C(C=O)=C[C@]4(C)C3=CC[C@]12C (some centres not stated) | 1.86 | 13.1 |
| C[C@H](CC[C@@H](O)C(C)(C)O)[C@H]1CC[C@]2(C)C3CCC4C(C)(C)C(=O)C(C#N)=C[C@]4(C)C3=CC[C@]12C (some centres not stated) | 83.23 | 25.5 |
| C[C@H](CC[C@@H](O)C(C)(C)O)[C@H]1CC[C@]2(C)C3CCC4C(C)(C)C(=O)C(Cl)=C[C@]4(C)C3=CC[C@]12C (some centres not stated) | 106.8 | 38.1 |
| COC(=O)C1=C[C@]2(C)C3=CC[C@]4(C)[C@@H]([C@H](C)CC[C@@H](O)C(C)(C)O)CC[C@]4(C)C3CCC2C(C)(C)C1=O (some centres not stated) | 66.51 | 3.96 |
| COc1cc([C@@H]2c3cc4c(cc3[C@@H](O[C@@H]3O[C@@H]5CO[C@@H](C)O[C@H]5[C@H](O)[C@H]3O)[C@H]3COC(=O)[C@H]23)OCO4)cc(OC)c1O [ETOPOSIDE] |  | 3.39 |

Continued by falling EC50 (A549), values first:

| IC50 (DNA topoisomerase II) [µM] | EC50 (A549) [µM] | SMILES |
| --- | --- | --- |
| 22.7 | 29.6 | COC1=C[C@]2(C)C3=CC[C@]4(C)[C@@H]([C@H](C)CC[C@@H](O)C(C)(C)O)CC[C@]4(C)C3CCC2C(C)(C)C1=O (some centres not stated) |
| 149.97 | 26.9 | C[C@H](CC[C@@H](O)C(C)(C)O)[C@H]1CC[C@]2(C)C3CCC4C(C)(C)C(=O)C=C[C@]4(C)C3=CC[C@]12C (some centres not stated) |
| 18.27 | 14.3 | C[C@H](CC[C@@H](O)C(C)(C)O)[C@H]1CC[C@]2(C)C3CCC4C(C)(C)C(=O)C(Br)=C[C@]4(C)C3=CC[C@]12C (some centres not stated) |
